# In patent EP4652992A1, “OPHTHALMIC COMPOSITION FOR PREVENTING AND TREATING CONJUNCTIVA EPITHELIUM DAMAGE AND ASSOCIATED DISCOMFORT CAUSED BY HYPOTONIZING FORMULATIONS” (FB Vision S.p.A., priority 2024, dated 2025):
# Structures can show the parent of a compound that is named as a salt.
# What was measured:
# [1] = system: human conjunctival epithelial cells (HCE); assay: Cell growth and vitality of HCE cells (trypan blue exclusion test and MTT assay); format: cell-based
# From the text: In vitro tests on human conjunctival epithelial cells (HCE) for the experimental verification of the cytoprotective and antioxidant activity of beta caryophyllene (BCP) on the oxidative damage induced by anti-glaucoma medicines (AD). Characterization of the cytoprotective effects of beta-caryophyllene (BCP) on the human conjunctival epithelial cells exposed to oxidative and mitochondrial stress. This stress mimics the irritant and inflammatory action of hypotonizing ophthalmic medicines on the external structures of the human eye.
# The HCE cells were exposed for 24 and 48 hours with increasing concentrations of BRIM (from 0.25 up to 4 mg/mL), DZL (from 0.086 up to 0.43%) and TFP (from 0.9 up to 30 µg/mL), alone and in combination with various concentrations of BCP (from 1.25 up to 40 µM), and the cell growth and vitality were evaluated respectively using the trypan blue exclusion test and the MTT assay. […] The IC50 ([…]) values for BRIM and DZL on their own are given respectively in the accompanying Figures 1 and 2. The in vitro interactions between BCP and BRIM or DZL, as illustrated in Figures 3A and B, were determined by the ÿE model of non-parametric response surface analysis. […] In particular, the most advantageous combinations were 10 µM BCP with 2 mg/ml BRIM and 2.5 µM BCP with 0.25% DZL. Of the combinations selected, only the combination 10 µM BCP and 2 mg/mL BRIM, which reflects the commercial formulation of the eye drops for treatment, was studied further. All the statistical comparisons were performed with respect to vCTR (vehicle control).
# HCE cells [2] = assay: Apoptosis, cytofluorimetric analysis; format: cell-based, human; details: BRIM/BCP with respect to BRIM
# Protocol: Figure 5 is a bar graph showing the percentage values of apoptotic cells (early and late) and necrotic cells in experimental groups exposed for 48 hours to BRIM and BCP.
# HCE cells [3] = details: 48 hours of incubation
# Protocol: The distribution of cell cycle phases is shown using PI dyeing and analyzed using flow cytometry. The bar charts show the percentage of cells in each phase and represent the average ± SE of the results of three independent experiments; one-way ANOVA followed by Bonferroni's t-test; *p<0.05 with respect to vCTR.
# The cells were treated for 24 hours and 48 hours, and cytofluorimetric analyses of the cell cycle phase were performed for the distribution (Figure 4) and the apoptosis (Figure 5).
# HCE cells [4] = details: 3 - 24 hours, any analyzed moment, JC-1 dye
# Protocol: After the treatments, the ÿÿm was analyzed using JC-1 dye.
# Measurements of mitochondrial activity, performed by means of experiments over time (3 - 24 hours), were evaluated by means of coloring with JC-1 dye.
# HCE cells [5] = details: 24 hours, vs. vCTR
# Protocol: After 24 hours of treatment, intracellular production of ROS was analyzed using DCHF-DA with respect to vCTR. The values shown represent the average ± SE of the results of three independent experiments; one-way ANOVA followed by the Holm-Šidák method; *p<0.05 with respect to vCTR; p<0.05 BRIM/BCP with respect to BRIM dyeing with fluorescent dye. The values express the intensity of the fluorescence (Arbitrary Units, AU) and represent the average ± SE of the results of three independent experiments; one-way ANOVA in the rows; *p<0.05 with respect to vCTR.
compound,measurement,setting,value
"C=C1CC/C=C(\C)CC[C@@H]2[C@@H]1CC2(C)C [BCP, (1R,4E,9S)-4,11,11-Trimethyl-8-methylidenebicyclo[7.2.0]undec-4-ene]",protective effects of BCP in the cells treated with BRIM and DZL,"[1]; HCE cells, 48 hours of incubation, BCP from 1.25 up to 40 µM",Significant protective effects
same,"most advantageous combination, BCP concentration with BRIM","[1]; with 2 mg/ml BRIM, non-parametric response surface analysis",10 µM
same,"most advantageous combination, BCP concentration with DZL","[1]; with 0.25% DZL, non-parametric response surface analysis",2.5 µM
same,early apoptosis reduced (apoptosis induced by BRIM),HCE cells [2]; 24 and 48 hours,approximately 35%
same,late apoptosis decrease (apoptosis induced by BRIM),HCE cells [2]; 48 hours,approximately 15%
"Brc1c(NC2=NCCN2)ccc2nccnc12 [BRIM, Brimonidine tartrate]",S phase,HCE cells [3],significant decreases
same,percentage of cells in the G2/M phase,"HCE cells [3]; vehicle control 12%, 2 mg/mL BRIM, 10 µM BCP",33.73%
same,mitochondrial membrane potential (ÿÿm),HCE cells [4],marked mitochondrial depolarization
same,increase in ROS production,HCE cells [5],approximately 30%
"CC(C)OC(=O)CCC/C=C\C[C@@H]1[C@@H](/C=C/C(F)(F)COc2ccccc2)[C@H](O)C[C@@H]1O [TFP, tafluprost]",cytotoxic effects,"[1]; HCE cells, 24 and 48 hours, up to concentrations of 30 µg/mL",no cytotoxic effects
